Reference: ChEMBL document CHEMBL1201862, “PubChem BioAssay data set” (2004)
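Method: 48-hour compound exposure of cells in 96-well plates, five concentrations, linear interpolation of endpoints. GI50 marks 50% less growth.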 The source made the active and inactive calls. Cut-off read from the data, not from the text of the source: active = GI50 up to about 1.1 µM and inactive = higher.

Legend:
Test in all cases: NCI-60 cell line screen, 48 h
OVCAR-4 = test system: OVCAR-4
HOP-92 = test system: HOP-92
HOP-62 = test system: HOP-62
DMS-273 = test system: DMS-273
SNB-75 = test system: SNB-75
SW-620 = test system: SW-620
SNB-78 = test system: SNB-78
CCRF-CEM = test system: CCRF-CEM
786-0 = test system: 786-0
OVCAR-3 = test system: OVCAR-3
MOLT-4 = test system: MOLT-4
UO-31 = test system: UO-31
NCI-H522 = test system: NCI-H522
KM-20L2 = test system: KM-20L2
EKVX = test system: EKVX
M14 = test system: M14
SF-295 = test system: SF-295
KM12 = test system: KM12
A549 = test system: A549
OVCAR-5 = test system: OVCAR-5
SK-MEL-2 = test system: SK-MEL-2
DLD-1 = test system: DLD-1
SN12C = test system: SN12C
SK-OV-3 = test system: SK-OV-3
OVCAR-8 = test system: OVCAR-8
RXF 393 = test system: RXF 393
LXFL 529 = test system: LXFL 529
HCT-116 = test system: HCT-116
A498 = test system: A498
LOX IMVI = test system: LOX IMVI
RXF 631 = test system: RXF 631
Malme-3M = test system: Malme-3M
K562 = test system: K562
SK-MEL-28 = test system: SK-MEL-28
RPMI-8226 = test system: RPMI-8226
NCI-H226 = test system: NCI-H226
DMS-114 = test system: DMS-114
UACC-257 = test system: UACC-257
COLO 205 = test system: COLO 205
SF-268 = test system: SF-268
M19-MEL = test system: M19-MEL
SF-539 = test system: SF-539
NCI-H23 = test system: NCI-H23
TK-10 = test system: TK-10
XF498 = test system: XF498
U-251 = test system: U-251
CAKI-1 = test system: CAKI-1
SK-MEL-5 = test system: SK-MEL-5
SNB-19 = test system: SNB-19
IGROV-1 = test system: IGROV-1
HT-29 = test system: HT-29
HCC 2998 = test system: HCC 2998
UACC-62 = test system: UACC-62
HCT-15 = test system: HCT-15
SR = test system: SR

COc1cc(/C=C(\NC(=O)c2ccccc2)c2nc3ccc4c(c3[nH]2)C(=O)c2ccccc2C4=O)cc(OC)c1OC
GI50 (OVCAR-4): 69.3 µM (inactive)
GI50 (HOP-92): 25.4 µM (inactive)
GI50 (HOP-62): > 100 µM (inactive)
GI50 (DMS-273): 40.7 µM (inactive)
GI50 (SNB-75): 22.9 µM (inactive)
GI50 (SW-620): 38.3 µM (inactive)
GI50 (SNB-78): 76.7 µM (inactive)
GI50 (CCRF-CEM): 0.687 µM (active)
GI50 (786-0): 28.2 µM (inactive)
GI50 (OVCAR-3): 38.1 µM (inactive)
GI50 (MOLT-4): 2.52 µM (inactive)
GI50 (UO-31): 2.36 µM (inactive)
GI50 (NCI-H522): 7.24 µM (inactive)
GI50 (KM-20L2): > 100 µM (inactive)
GI50 (EKVX): 44 µM (inactive)
GI50 (M14): 63.1 µM (inactive)
GI50 (SF-295): 55.7 µM (inactive)
GI50 (KM12): 8.05 µM (inactive)
GI50 (A549): 21.4 µM (inactive)
GI50 (OVCAR-5): > 100 µM (inactive)
GI50 (SK-MEL-2): 50.5 µM (inactive)
GI50 (DLD-1): 7.11 µM (inactive)
GI50 (SN12C): 32.5 µM (inactive)
GI50 (SK-OV-3): 18.6 µM (inactive)
GI50 (OVCAR-8): 41.6 µM (inactive)
GI50 (RXF 393): 22.8 µM (inactive)
GI50 (LXFL 529): 49 µM (inactive)
GI50 (HCT-116): 23.1 µM (inactive)
GI50 (A498): 13.1 µM (inactive)
GI50 (LOX IMVI): 20.3 µM (inactive)
GI50 (RXF 631): 58.7 µM (inactive)
GI50 (Malme-3M): > 100 µM (inactive)
GI50 (K562): 28 µM (inactive)
GI50 (SK-MEL-28): 77.6 µM (inactive)
GI50 (RPMI-8226): 2.92 µM (inactive)
GI50 (NCI-H226): > 100 µM (inactive)
GI50 (DMS-114): 32.4 µM (inactive)
GI50 (UACC-257): > 100 µM (inactive)
GI50 (COLO 205): > 100 µM (inactive)
GI50 (SF-268): 8.91 µM (inactive)
GI50 (M19-MEL): > 100 µM (inactive)
GI50 (SF-539): 20.1 µM (inactive)
GI50 (NCI-H23): 55.6 µM (inactive)
GI50 (TK-10): 29.2 µM (inactive)
GI50 (XF498): > 100 µM (inactive)
GI50 (U-251): 31.9 µM (inactive)
GI50 (CAKI-1): 10.1 µM (inactive)
GI50 (SK-MEL-5): 35 µM (inactive)
GI50 (SNB-19): 99.1 µM (inactive)
GI50 (IGROV-1): 10.7 µM (inactive)
GI50 (HT-29): > 100 µM (inactive)
GI50 (HCC 2998): > 100 µM (inactive)
GI50 (UACC-62): 38.1 µM (inactive)
GI50 (HCT-15): 35.7 µM

c1ccc2c(c1)[nH]c1c2nc2ccccn21
GI50 (HOP-62): > 100 µM (inactive)
GI50 (786-0): 81.3 µM (inactive)
GI50 (NCI-H522): > 100 µM (inactive)
GI50 (SF-295): > 100 µM (inactive)
GI50 (SR): > 100 µM (inactive)
GI50 (SK-MEL-2): > 100 µM (inactive)
GI50 (DLD-1): 66.1 µM (inactive)
GI50 (SN12C): > 100 µM (inactive)
GI50 (RXF 393): > 100 µM (inactive)
GI50 (A498): 85.5 µM (inactive)
GI50 (RXF 631): > 100 µM (inactive)
GI50 (K562): 74.3 µM (inactive)
GI50 (NCI-H226): > 100 µM (inactive)
GI50 (M19-MEL): > 100 µM (inactive)
GI50 (SF-539): > 100 µM (inactive)
GI50 (XF498): > 100 µM (inactive)
GI50 (CAKI-1): 67.9 µM (inactive)
GI50 (HCC 2998): > 100 µM (inactive)
